Like-named read-outs stand apart in the source and are kept apart here.
How the values were obtained:
Type in all cases: biochemical
[1] = molecular target: T1, PI3K δ (Homo sapiens, UniProt O00329); experiment: PI 3-Kinase (human) HTRF assay, PI3K δ; details: read-out: PI3K δ IC50
T1 construct: purchased Upstate / Millipore Corporation

[2] = molecular target: T2, PI3K α (p110α/p85α) (Homo sapiens, UniProt P42336); experiment: PI 3-Kinase (human) HTRF assay, PI3K α; details: read-out: PI3K α IC50
T2 construct: purchased Upstate / Millipore Corporation
Protocol: (§1) Briefly, the assay is a time resolved FRET assay that indirectly measures PIP3 product formed by the activity of a PI3-K. The kinase reaction is performed in a microtiter plate (e.g., a 384 well microtiter plate). The total reaction volume is approximately 20 ul per well. In the first step, each well receives 2 ul of test compound in 20% dimethylsulphoxide resulting in a 2% DMSO final concentration. […] The plate is sealed and incubated for 15 minutes at room temperature. […] The plate is sealed and incubated for 1 hour at room temperature. The reaction is stopped by adding 5 ul of Stop Solution per well and then 5 ul of Detection Mix is added per well. The plate is sealed, incubated for 1 hour at room temperature, and then read on an appropriate plate reader. Data is analyzed and IC50s are generated using GraphPad Prism 5.

[3] = molecular target: T3, mTOR (Homo sapiens, UniProt P42345); experiment: mTOR kinase inhibition assay (radiometric or LanthaScreen TR-FRET); details: read-out: mTORC IC50
T3 construct: purchased Invitrogen
Protocol: The cross-activity or lack thereof of one or more compounds of the present invention against mTor can be measured according to any procedures known in the art or methods disclosed below.
The compounds described herein can be tested against recombinant mTOR (Invitrogen) in an assay containing 50 mM HEPES, pH 7.5, 1 mM EGTA, 10 mM MgCl2, 2.5 mM, 0.01% Tween, 10 μM ATP (2.5 μCi of μ-32P-ATP), and 3 μg/mL BSA. Rat recombinant PHAS-1/4EBP1 (Calbiochem; 2 mg/mL) is used as a substrate. Reactions are terminated by spotting onto nitrocellulose, which is washed with 1M NaCl/1% phosphoric acid (approximately 6 times, 5-10 minutes each). Sheets are dried and the transferred radioactivity quantitated by phosphorimaging.
For instance, one can use Invitrogen's LanthaScreen™ Kinase assay to test the inhibitors of mTOR disclosed herein. This assay is a time resolved FRET platform that measures the phosphorylation of GFP labeled 4EBP1 by mTOR kinase. The kinase reaction is performed in a white 384 well microtiter plate. The total reaction volume is 20 ul per well and the reaction buffer composition is 50 mM HEPES pH7.5, 0.01% Polysorbate 20, 1 mM EGTA, 10 mM MnCl2, and 2 mM DTT. In the first step, each well receives 2 ul of test compound in 20% dimethylsulphoxide resulting in a 2% DMSO final concentration. […] The plate is sealed and incubated for 1 hour at room temperature. […] The plate is sealed, incubated for 1 hour at room temperature, and then read on a plate reader set up for LanthaScreen™ TR-FRET. Data is analyzed and IC50s are generated using GraphPad Prism 5.

[4] = molecular target: T4, PI3K β (p110β/p85α) (Homo sapiens, UniProt P42338); experiment: PI 3-Kinase (human) HTRF assay, PI3K β; details: read-out: PI3K β IC50
T4 construct: purchased Upstate / Millipore Corporation
Protocol: as §1

[5] = molecular target: T5, PI3K γ (p110γ) (Homo sapiens, UniProt P48736); experiment: PI 3-Kinase (human) HTRF assay, PI3K γ; details: read-out: PI3K γ IC50
T5 construct: purchased Upstate / Millipore Corporation
T5 sequence (P48736 whole entry): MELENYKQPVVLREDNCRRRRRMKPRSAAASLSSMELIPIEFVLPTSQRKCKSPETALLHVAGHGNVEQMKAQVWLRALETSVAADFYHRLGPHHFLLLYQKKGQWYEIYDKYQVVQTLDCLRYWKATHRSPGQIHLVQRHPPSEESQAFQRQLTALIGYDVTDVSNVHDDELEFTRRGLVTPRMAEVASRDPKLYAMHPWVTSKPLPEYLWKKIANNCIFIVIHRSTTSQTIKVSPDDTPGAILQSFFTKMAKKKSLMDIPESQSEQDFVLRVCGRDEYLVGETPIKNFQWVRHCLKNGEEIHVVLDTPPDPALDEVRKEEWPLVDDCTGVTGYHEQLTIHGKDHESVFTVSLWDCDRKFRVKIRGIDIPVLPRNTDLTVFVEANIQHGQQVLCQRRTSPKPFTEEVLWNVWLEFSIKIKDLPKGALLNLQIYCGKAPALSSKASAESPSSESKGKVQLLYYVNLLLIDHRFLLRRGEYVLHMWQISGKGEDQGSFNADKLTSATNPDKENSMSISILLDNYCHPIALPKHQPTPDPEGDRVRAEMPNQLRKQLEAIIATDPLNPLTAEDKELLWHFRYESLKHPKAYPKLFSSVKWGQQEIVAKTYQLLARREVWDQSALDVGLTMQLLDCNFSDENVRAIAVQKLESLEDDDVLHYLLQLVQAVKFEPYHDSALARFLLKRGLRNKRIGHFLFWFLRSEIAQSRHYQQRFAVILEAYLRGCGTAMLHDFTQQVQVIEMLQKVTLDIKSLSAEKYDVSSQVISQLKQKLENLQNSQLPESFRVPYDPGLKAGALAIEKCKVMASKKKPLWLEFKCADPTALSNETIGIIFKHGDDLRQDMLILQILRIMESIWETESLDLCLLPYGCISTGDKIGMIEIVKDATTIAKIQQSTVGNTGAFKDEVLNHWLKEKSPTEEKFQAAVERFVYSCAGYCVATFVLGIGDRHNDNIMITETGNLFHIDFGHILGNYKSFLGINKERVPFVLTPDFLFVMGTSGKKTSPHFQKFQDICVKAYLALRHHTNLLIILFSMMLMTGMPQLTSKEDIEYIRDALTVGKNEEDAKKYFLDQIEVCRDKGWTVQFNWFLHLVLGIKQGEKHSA

T3 sequence (P42345 1360-2549 limits assumed): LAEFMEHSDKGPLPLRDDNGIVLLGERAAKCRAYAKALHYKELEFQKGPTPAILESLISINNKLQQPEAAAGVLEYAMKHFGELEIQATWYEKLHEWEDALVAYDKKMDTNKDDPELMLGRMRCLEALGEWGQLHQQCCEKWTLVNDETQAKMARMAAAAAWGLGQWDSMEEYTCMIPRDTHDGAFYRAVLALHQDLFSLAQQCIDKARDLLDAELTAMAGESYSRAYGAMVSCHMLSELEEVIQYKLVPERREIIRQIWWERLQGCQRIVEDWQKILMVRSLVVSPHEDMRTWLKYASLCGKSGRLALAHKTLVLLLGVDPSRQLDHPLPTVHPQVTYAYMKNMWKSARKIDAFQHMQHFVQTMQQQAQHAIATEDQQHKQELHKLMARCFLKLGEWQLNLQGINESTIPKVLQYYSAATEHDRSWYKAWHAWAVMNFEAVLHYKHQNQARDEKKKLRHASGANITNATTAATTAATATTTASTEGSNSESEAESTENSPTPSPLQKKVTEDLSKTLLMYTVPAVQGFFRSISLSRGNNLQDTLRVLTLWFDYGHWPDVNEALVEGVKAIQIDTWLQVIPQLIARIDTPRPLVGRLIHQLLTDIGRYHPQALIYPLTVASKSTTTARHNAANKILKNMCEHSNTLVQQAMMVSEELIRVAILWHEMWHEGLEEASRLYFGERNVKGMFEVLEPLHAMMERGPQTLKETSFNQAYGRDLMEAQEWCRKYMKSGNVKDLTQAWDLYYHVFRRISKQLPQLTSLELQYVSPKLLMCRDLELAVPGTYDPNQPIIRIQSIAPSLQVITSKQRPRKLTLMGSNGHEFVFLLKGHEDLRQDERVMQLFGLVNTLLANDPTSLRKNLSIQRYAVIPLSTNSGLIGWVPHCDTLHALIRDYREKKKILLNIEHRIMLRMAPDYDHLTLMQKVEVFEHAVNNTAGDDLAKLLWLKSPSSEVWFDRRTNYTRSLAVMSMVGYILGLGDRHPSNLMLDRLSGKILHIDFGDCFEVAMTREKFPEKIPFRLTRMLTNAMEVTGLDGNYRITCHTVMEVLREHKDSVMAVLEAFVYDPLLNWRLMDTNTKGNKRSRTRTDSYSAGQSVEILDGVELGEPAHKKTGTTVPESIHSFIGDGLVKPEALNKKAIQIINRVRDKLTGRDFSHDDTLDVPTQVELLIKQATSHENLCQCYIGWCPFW
T2 sequence (P42336 whole entry): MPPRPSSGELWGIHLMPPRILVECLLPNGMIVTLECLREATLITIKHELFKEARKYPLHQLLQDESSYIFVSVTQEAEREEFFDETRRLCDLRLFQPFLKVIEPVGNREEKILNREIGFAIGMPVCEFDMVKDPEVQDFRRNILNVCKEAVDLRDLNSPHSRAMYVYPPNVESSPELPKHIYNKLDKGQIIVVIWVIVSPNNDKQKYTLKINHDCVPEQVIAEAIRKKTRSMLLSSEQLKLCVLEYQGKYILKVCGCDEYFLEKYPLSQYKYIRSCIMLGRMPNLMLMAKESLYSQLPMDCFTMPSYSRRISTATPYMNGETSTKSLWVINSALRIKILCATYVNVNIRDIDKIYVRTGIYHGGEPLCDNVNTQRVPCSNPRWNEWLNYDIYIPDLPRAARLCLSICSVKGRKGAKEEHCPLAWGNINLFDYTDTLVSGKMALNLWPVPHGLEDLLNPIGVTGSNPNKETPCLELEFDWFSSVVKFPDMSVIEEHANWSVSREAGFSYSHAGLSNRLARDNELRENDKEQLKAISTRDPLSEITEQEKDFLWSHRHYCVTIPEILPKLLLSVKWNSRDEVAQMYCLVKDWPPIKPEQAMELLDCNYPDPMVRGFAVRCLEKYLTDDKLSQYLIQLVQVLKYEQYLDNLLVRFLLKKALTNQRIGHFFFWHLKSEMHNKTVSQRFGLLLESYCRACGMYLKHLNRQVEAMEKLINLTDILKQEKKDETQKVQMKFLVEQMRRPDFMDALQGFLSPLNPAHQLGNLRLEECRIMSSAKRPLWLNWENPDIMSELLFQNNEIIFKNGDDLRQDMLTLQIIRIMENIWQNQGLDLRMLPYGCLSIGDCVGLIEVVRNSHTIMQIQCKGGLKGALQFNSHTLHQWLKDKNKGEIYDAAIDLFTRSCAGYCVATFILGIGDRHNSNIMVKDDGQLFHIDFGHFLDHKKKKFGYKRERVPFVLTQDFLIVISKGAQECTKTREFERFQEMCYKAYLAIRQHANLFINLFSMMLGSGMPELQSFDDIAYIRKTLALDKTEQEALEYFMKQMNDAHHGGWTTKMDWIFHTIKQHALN
T2 sequence (P27986 whole entry partner): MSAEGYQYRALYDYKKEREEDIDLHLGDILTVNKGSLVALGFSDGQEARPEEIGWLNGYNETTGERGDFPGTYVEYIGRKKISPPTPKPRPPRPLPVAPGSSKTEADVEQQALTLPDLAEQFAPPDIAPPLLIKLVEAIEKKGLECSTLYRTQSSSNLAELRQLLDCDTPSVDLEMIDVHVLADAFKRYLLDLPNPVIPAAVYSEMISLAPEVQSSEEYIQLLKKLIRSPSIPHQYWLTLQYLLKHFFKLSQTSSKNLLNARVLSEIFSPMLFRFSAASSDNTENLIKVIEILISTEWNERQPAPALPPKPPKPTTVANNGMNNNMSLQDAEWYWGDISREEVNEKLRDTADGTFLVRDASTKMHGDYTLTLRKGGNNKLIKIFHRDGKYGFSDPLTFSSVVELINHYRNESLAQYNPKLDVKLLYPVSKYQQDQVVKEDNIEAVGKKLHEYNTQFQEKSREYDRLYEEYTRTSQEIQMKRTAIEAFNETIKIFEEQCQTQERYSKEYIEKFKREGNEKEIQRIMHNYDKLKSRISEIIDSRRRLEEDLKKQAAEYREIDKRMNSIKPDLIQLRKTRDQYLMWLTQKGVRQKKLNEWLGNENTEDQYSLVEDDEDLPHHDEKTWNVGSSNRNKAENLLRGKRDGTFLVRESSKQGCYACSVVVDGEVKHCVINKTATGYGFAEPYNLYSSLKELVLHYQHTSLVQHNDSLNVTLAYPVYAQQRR

Structure (SMILES)	IC50 ([1]; Table 4 (PI3K α inhibitors)) [nM]	IC50 ([2]; Table 4 (PI3K α inhibitors)) [nM]	IC50 ([3]; Table 4 (PI3K α inhibitors)) [nM]	IC50 [4] [nM]	IC50 [1] [nM]	IC50 [2] [nM]	IC50 [3] [nM]	IC50 ([4]; Table 4 (PI3K α inhibitors)) [nM]	IC50 [5] [nM]
CN1CCN(C2CN(c3cnc4ccc(-c5ccc6oc(N)nc6c5)nc4n3)C2)CC1 [Compound 622]	< 1000	< 100	> 10000						
Nc1nc2cc(-c3ccc4nc(N)sc4c3)ccc2o1 [Compound 232]				< 1000	< 10000	< 1000	< 10000		
Cc1nccn1C1CN(c2cnc3ccc(-c4ccc5oc(N)nc5c4)nc3n2)C1 [Compound 601]		< 100	> 10000						
CCN1CCN(C2CN(c3cnc4ccc(-c5ccc6oc(N)nc6c5)nc4c3)C2)CC1 [Compound 626]	< 1000	< 100	> 10000					< 1000	
C[C@H]1CN(C2CN(c3cnc4ccc(-c5ccc6oc(N)nc6c5)nc4c3)C2)CCN1 [Compound 605]	< 1000	< 100	> 10000						
CN1CCN(C2CN(c3cnc4ccc(-c5ccc6oc(N)nc6c5)cc4n3)C2)CC1 [Compound 274]				< 10000	< 10000	< 100	< 10000		
C[C@H]1COCCN1C1CN(c2cnc3ccc(-c4ccc5oc(N)nc5c4)nc3n2)C1 [Compound 612]		< 100	> 10000					> 10000	
CN(C)[C@@H]1CCN(c2cnc3ccc(-c4ccc5oc(N)nc5c4)cc3n2)C1 [Compound 378]				< 100	< 10000	< 100	< 1000		
Nc1nc2cc(-c3ccc4ncc(N5CC(N6CCN(CC7CC7)CC6)C5)nc4n3)ccc2o1 [Compound 586]		< 100	> 10000						
CC1(C)CN(C2CN(c3cnc4ccc(-c5ccc6oc(N)nc6c5)nc4n3)C2)CCN1 [Compound 603]	< 1000	< 100	> 10000						
Nc1nc2cc(-c3ccc4ncnc(OC5CCOCC5)c4c3)ccc2o1 [Compound 47]				< 1000	< 1000	< 100	< 100		
CS(=O)(=O)Nc1cc(-c2ccc3ncc(C(=O)N4CCOCC4)n3c2)cnc1Cl [Compound 418]				< 100	< 100	< 100	< 100		
C[C@H]1CN(C2CN(c3cnc4ccc(-c5ccc6oc(N)nc6c5)nc4n3)C2)CCN1 [Compound 561]		< 100	< 10000					> 10000	
Nc1nc2cc(-c3ccc4ncc(N5CC(N6CCOCC6)C5)nc4c3)ccc2o1 [Compound 273]				> 10000	> 10000	< 100	< 1000		
N#Cc1cnc2ccc(-c3ccc4oc(N)nc4c3)cc2c1Cl [Compound 77]							< 1000		
Nc1nc2cc(-c3ccc4ncc(N5CC(N6CCOCC6)C5)nc4n3)ccc2o1 [Compound 556]		< 100	< 10000					> 10000	
Nc1nc2cc(-c3ccc4ncc(-c5ccnc(N6CCOCC6)c5)n4c3)ccc2o1 [Compound 52]					< 100	< 100	< 10000		
CCN1CCN(C2CN(c3cnc4ccc(-c5ccc6oc(N)nc6c5)nc4n3)C2)CC1 [Compound 627]		< 100	< 10000						
CC1(C)CN(C2CN(c3cnc4ccc(-c5ccc6oc(N)nc6c5)cc4n3)C2)CCN1 [Compound 388]				< 1000	< 1000	< 100	< 100		
Nc1nc2cc(-c3ccc4ncc(N5CC(N6CCN(CCO)CC6)C5)nc4n3)ccc2o1 [Compound 597]		< 100	> 10000						
Nc1nc2cc(-c3ccc4oc(N)nc4c3)ccc2o1 [Compound 240]					< 10000	< 1000	< 10000		

Structure (SMILES)	IC50 ([1]; Table 4 (PI3K α inhibitors)) [nM]	IC50 ([2]; Table 4 (PI3K α inhibitors)) [nM]	IC50 ([3]; Table 4 (PI3K α inhibitors)) [nM]	IC50 [4] [nM]	IC50 [1] [nM]	IC50 [2] [nM]	IC50 [3] [nM]	IC50 ([4]; Table 4 (PI3K α inhibitors)) [nM]	IC50 [5] [nM]
CC(C)(N)C(=O)N1CCN(c2cnc3ccc(-c4ccc5oc(N)nc5c4)nc3n2)CC1 [Compound 591]		< 100	> 10000						
Nc1nc2cc(-c3ccc4ncc(N5CCNC(C(F)(F)F)C5)nc4c3)ccc2o1 (stereo not shown) [Compound 384]				< 1000	< 10000	< 100	< 1000		
Nc1nc2cc(-c3ccc4ncc(N5CC(N6CCN(CC7CC7)CC6)C5)cc4n3)ccc2o1 [Compound 611]	< 1000	< 100	> 10000						
Nc1nc2cc(-c3ccc4ncc(NCCCN5CCOCC5)nc4c3)ccc2o1 [Compound 222]				< 1000	< 100	< 100			< 1000
Nc1nc2cc(-c3ccc4ncn(C5CC5)c(=O)c4c3)ccc2o1 [Compound 254]				> 10000	> 10000	< 1000			< 1000
Nc1nc2cccc(-c3ccc4nccc(-c5ccncc5)c4c3)c2o1 [Compound 15]				< 100	< 1000	< 100	< 100		
COC(=O)N1CCN(c2cnc3ccc(-c4ccc5oc(N)nc5c4)cc3n2)CC1 [Compound 193]				< 1000	< 10000	< 100			< 100
CS(=O)(=O)N1CCN(C(=O)c2cnc3ccc(-c4ccc5oc(N)nc5c4)cn23)CC1 [Compound 112]				> 10000	< 10000	< 100			< 1000
CC(=O)N1CCC(N(C)c2ncnc3ccc(-c4ccc5oc(N)nc5c4)cc23)CC1 [Compound 137]				< 1000	< 1000	< 100	> 10000		
Cc1cc(-c2ccc3nc(N)oc3c2)cn2c(CCN3CCN(C)CC3)nnc12 [Compound 548]				> 10000	> 10000	> 10000			> 10000
CN1CCC(NC(=O)c2cnc3ccc(-c4ccc5oc(N)nc5c4)nn23)CC1 [Compound 203]				< 100	< 1000	< 100			< 100
Nc1nc2cc(-c3ccc4ncc(C(=O)N5CCNCC5)n4c3)ccc2o1 [Compound 111]				< 10000	> 10000	< 100			> 10000
Nc1nc2cc(-c3ccc4ncc(C(=O)N5CCC(O)CC5)n4c3)ccc2o1 [Compound 162]				> 10000	> 10000	< 1000			< 10000
Nc1nsc2cc(-c3ccc4ncc(C(=O)N5CCOCC5)n4c3)ccc12 [Compound 489]				> 10000	> 10000	< 10000			> 10000
CN1CCN(C(=O)C2CN(c3cnc4ccc(-c5ccc6oc(N)nc6c5)cc4n3)C2)CC1 [Compound 253]				< 10000	< 10000	> 10000			< 10000
Nc1nc2cc(-c3ccc4ncn(CCCN5CCOCC5)c(=O)c4c3)ccc2o1 [Compound 290]				> 10000	> 10000	< 1000			> 10000
CC(C)N1CCC(n2cnc3ccc(-c4cnc(Cl)c(NS(C)(=O)=O)c4)cc3c2=O)CC1 [Compound 523]				< 1000	< 100	< 100			< 100
Cc1nc2ccc(-c3ccc4oc(N)nc4c3)cn2c1C(=O)N1CCOCC1 [Compound 92]				> 10000	> 10000	> 10000			> 10000
Nc1nc2cc(-c3ccc4ncc(N5CCN(CC6CC6)CC5)nc4c3)ccc2o1 [Compound 153]				< 100	< 1000	< 100			< 1000
CC(C)N1CCN(C(=O)C2CN(c3cnc4ccc(-c5ccc6oc(N)nc6c5)cc4n3)C2)CC1 [Compound 285]				< 10000	< 1000	< 100			< 1000

Reference: patent US20150087627A1, “COMBINATION OF KINASE INHIBITORS AND USES THEREOF” (Intellikine LLC, priority 2011, published 2015)
